In one assay the target is MMP-13 (catalytic domain of collagenase 3) (Homo sapiens, UniProt P45452). As to the kind of experiment: Thiopeptolide substrate hydrolysis assay, MMP-13. Particulars: catalytic domain of collagenase 3; Table 1; read-out: MMP-13 IC50. The class given is biochemical. The text has this: The assays used to evaluate the biological activity of the invention compounds are well known and routinely used by those skilled in the study of MMP inhibitors and their use to treat clinical conditions.
The assays measure the amount by which a test compound reduces the hydrolysis of a thiopeptolide substrate catalyzed by a matrix metalloproteinase enzyme. Such assays are described in detail by Ye et al., in Biochemistry, 1992; 31(45):11231–11235, which is incorporated herein by reference.
Thiopeptolide substrates show virtually no decomposition or hydrolysis at or below neutral pH in the absence of a matrix metalloproteinase enzyme. A typical thiopeptolide substrate commonly utilized for assays is Ac-Pro-Leu-Gly-thioester-Leu-Leu-Gly-OEt. A 100-μL assay mixture will contain 50 mM of N-2-hydroxyethylpiperazine-N′-2-ethanesulfonic acid buffer (“HEPES”) at pH 7.0, 10 mM CaCl2, 100 μM thiopeptolide substrate, and 1 mM 5,5′-dithio-bis-(2-nitro-benzoic acid) (DTNB). The thiopeptolide substrate concentration may be varied from, for example, 10 to 800 μM to obtain Km and Kcat values. The change in absorbance at 405 nm is monitored on a Thermo Max microplate reader (Molecular Devices, Menlo Park, Calif.) at room temperature (22° C.). The calculation of the amount of hydrolysis of the thiopeptolide substrate is based on E412=13600 M^−1 cm^−1 for the DTNB-derived product 3-carboxy-4-nitrothiophenoxide. Assays are carried out with and without matrix metalloproteinase inhibitor compounds, and the amount of hydrolysis is compared for a determination of inhibitory activity of the test compounds.
In the tables, MMP-1 refers to full-length interstitial collagenase; MMP-3 refers to the catalytic domain of stromelysin-1; MMP-13 refers to the catalytic domain of collagenase 3. Test compounds were evaluated at various concentrations to determine their respective IC50 values.
Consider `COc1cccc(CNC(=O)c2ccnc(C(=O)NCc3cccc(OC)c3)c2)c1` [Example 1, Pyridine-2,4-dicarboxylic acid bis-(3-methoxy-benzylaride)], for which the IC50 was 0.035 µM. For `COc1ncc(C(=O)NCc2ccc3c(c2)OCO3)cc1C(=O)NCc1ccc2c(c1)OCO2` [Example 4, 2-Methoxy-pyridine-3,5-dicarboxylic acid bis-[(1,3-benzodioxol-5-ylmethyl)-amide]], the IC50 was 0.23 µM. For `O=C(NCc1ccc2c(c1)OCO2)c1ccnc(C(=O)NCc2ccc3c(c2)OCO3)c1` [Example 8, Pyridine-2,4-dicarboxylic acid bis-[(1,3-benzodioxol-5-ylmethyl)-amide]], the IC50 turned out to be 0.014 µM.

The assay is the same for the next values; noted with them: catalytic domain, human; combinatorial compounds of Example 14; Table 2; read-out: MMP-13 IC50 CD/Human.
In the case of `COc1cccc(CNC(=O)c2ccnc(C(=O)NCc3cccc(OC)c3)c2)c1` [Example 14.1, Pyridine-2,4-dicarboxylic acid bis-(3-methoxy-benzylamide)], the IC50 stood at 0.038 µM. On to `O=C(NCc1ccc2c(c1)OCO2)c1ccnc(C(=O)NCc2ccc3c(c2)OCO3)c1` [Example 14.2, Pyridine-2,4-dicarboxylic acid bis-[(1,3-benzodioxol-5-ylmethyl)-amide]], for which the IC50 turned out to be 0.033 µM. Regarding `O=C(NCc1ccc(Cl)cc1)c1ccnc(C(=O)NCc2ccc(Cl)cc2)c1` [Example 14.4, Pyridine-2,4-dicarboxylic acid bis-(4-chloro-benzylamide)], the IC50 was 0.3 µM. Same read-out and setting: then `O=C(NCc1cccc2ccccc12)c1ccnc(C(=O)NCc2cccc3ccccc23)c1` [Example 14.6, Pyridine-2,4-dicarboxylic acid bis-[(naphthalen-1-ylmethyl)-amide]], with 30 µM; and `COc1ccc(CNC(=O)c2ccnc(C(=O)NCc3ccc(OC)cc3)c2)cc1` [Example 14.8, Pyridine-2,4-dicarboxylic acid bis-(4-methoxy-benzylamide)], with 0.13 µM. The same measure, in the same setting: next, `O=C(NCc1cccc(F)c1)c1ccnc(C(=O)NCc2cccc(F)c2)c1` [Example 14.9, Pyridine-2,4-dicarboxylic acid bis-(3-fluoro-benzylamide)]: 0.18 µM. Regarding `O=C(NCCc1ccccc1Oc1ccccc1)c1ccnc(C(=O)NCCc2ccccc2Oc2ccccc2)c1` [Example 14.12, Pyridine-2,4-dicarboxylic acid bis-{[2-(2-phenoxy-phenyl)-ethyl]-amide}], the IC50 came to 30 µM. On to `CCc1ccc(CCNC(=O)c2ccnc(C(=O)NCCc3ccc(CC)cc3)c2)cc1` [Example 14.19, Pyridine-2,4-dicarboxylic acid bis-{[2-(4-ethyl-phenyl)-ethyl]-amide}], for which the IC50 is 30 µM. For `O=C(NC(Cc1ccccc1)c1ccccc1)c1ccnc(C(=O)NC(Cc2ccccc2)c2ccccc2)c1` (stereo not shown) [Example 14.21, Pyridine-2,4-dicarboxylic acid bis-[(1,2-diphenyl-ethyl)-amide]], the IC50 amounted to 30 µM.

On to `O=C(NCc1ccc(Cl)cc1Cl)c1ccnc(C(=O)NCc2ccc(Cl)cc2Cl)c1` [Example 14.22, Pyridine-2,4-dicarboxylic acid bis-(2,4-dichloro-benzylamide)], for which the IC50 worked out at 30 µM. As for `O=C(NCc1ccccc1-c1ccccc1)c1ccnc(C(=O)NCc2ccccc2-c2ccccc2)c1` [Example 14.23, Pyridine-2,4-dicarboxylic acid bis-[(biphenyl-2-ylmethyl)-amide]], the IC50 is 30 µM. `O=C(NCc1cccc(Cl)c1)c1ccnc(C(=O)NCc2cccc(Cl)c2)c1` [Example 14.25, Pyridine-2,4-dicarboxylic acid bis-(3-chloro-benzylamide)]: the IC50 turned out to be 0.074 µM. Turning to `O=C(NCc1ccncc1)c1ccnc(C(=O)NCc2ccncc2)c1` [Example 14.32, Pyridine-2,4-dicarboxylic acid bis-[(pyridin-4-ylmethyl)-amide]], the IC50 was 2 µM. With `O=C(NCc1cccc(C(F)(F)F)c1)c1ccnc(C(=O)NCc2cccc(C(F)(F)F)c2)c1` [Example 14.35, Pyridine-2,4-dicarboxylic acid bis-(3-trifluoromethyl-benzylamide)], the IC50 was 0.31 µM. On to `O=C(NCc1cccc(OC(F)F)c1)c1ccnc(C(=O)NCc2cccc(OC(F)F)c2)c1` [Example 14.37, Pyridine-2,4-dicarboxylic acid bis-(3-difluoromethoxy-benzylamide)], for which the IC50 stood at 0.26 µM. Turning to `O=C(NCc1ccc(F)c(C(F)(F)F)c1)c1ccnc(C(=O)NCc2ccc(F)c(C(F)(F)F)c2)c1` [Example 14.39, Pyridine-2,4-dicarboxylic acid bis-(4-fluoro-3-trifluoromethyl-benzylamide)], the IC50 was found to be 0.28 µM. Consider `O=C(NCc1ccc(F)c(Cl)c1)c1ccnc(C(=O)NCc2ccc(F)c(Cl)c2)c1` [Example 14.42, Pyridine-2,4-dicarboxylic acid bis-(3-chloro-4-fluoro-benzylamide)], for which the IC50 is 0.04 µM. With `Nc1ccc(CNC(=O)c2ccnc(C(=O)NCc3ccc(N)cc3)c2)cc1` [Example 14.44, Pyridine-2,4-dicarboxylic acid bis-(4-amino-benzylamide)], the IC50 worked out at 70 µM.

`COc1ccc(C(NC(=O)c2ccnc(C(=O)NC(c3ccc(OC)cc3)c3ccc(OC)cc3)c2)c2ccc(OC)cc2)cc1` [Example 14.46, Pyridine-2,4-dicarboxylic acid bis-{[bis-(4-methoxy-phenyl)-methyl]-amide}]: the IC50 was found to be 30 µM. With `O=C(NCCC(c1ccccc1)c1ccccc1)c1ccnc(C(=O)NCCC(c2ccccc2)c2ccccc2)c1` [Example 14.47, Pyridine-2,4-dicarboxylic acid bis-[(3,3-diphenyl-propyl)-amide]], the IC50 was 30 µM. In the case of `O=C(NCc1ccccc1F)c1ccnc(C(=O)NCc2ccccc2F)c1` [Example 14.50, Pyridine-2,4-dicarboxylic acid bis-(2-fluoro-benzylamide)], the IC50 was found to be 84 µM. On the same count and under the same terms, next, `Cc1ccc(CNC(=O)c2ccnc(C(=O)NCc3ccc(C)cc3)c2)cc1` [Example 14.54, Pyridine-2,4-dicarboxylic acid bis-(4-methyl-benzylamide)]: 1.5 µM; `O=C(NCc1cccnc1)c1ccnc(C(=O)NCc2cccnc2)c1` [Example 14.57, Pyridine-2,4-dicarboxylic acid bis-[(pyridin-3-ylmethyl)-amide]]: 34 µM; `O=C(NCc1cccs1)c1ccnc(C(=O)NCc2cccs2)c1` [Example 14.60, Pyridine-2,4-dicarboxylic acid bis-[(thiophen-2-ylmethyl)-amide]]: 13 µM. For `O=C(NCc1ccc(C(F)(F)F)cc1)c1ccnc(C(=O)NCc2ccc(C(F)(F)F)cc2)c1` [Example 14.61, Pyridine-2,4-dicarboxylic acid bis-(4-trifluoromethyl-benzylamide)], the IC50 came out at 30 µM.

On to `Cc1ccc(CNC(=O)c2ccnc(C(=O)NCc3ccc(C)o3)c2)o1` [Example 14.62, Pyridine-2,4-dicarboxylic acid bis-[(5-methyl-furan-2-ylmethyl)-amide]], for which the IC50 came out at 88 µM.

Regarding `CC(NC(=O)c1ccnc(C(=O)NC(C)c2cccc3ccccc23)c1)c1cccc2ccccc12` (stereo not shown) [Example 14.65, Pyridine-2,4-dicarboxylic acid bis-[(1-naphthalen-1-yl-ethyl)-amide]], the IC50 stood at 30 µM.

On to `O=C(NCCc1ccc(O)cc1)c1ccnc(C(=O)NCCc2ccc(O)cc2)c1` [Example 14.66, Pyridine-2,4-dicarboxylic acid bis-{[2-(4-hydroxy-phenyl)-ethyl]-amide}], for which the IC50 is 30 µM. Regarding `O=C(NCc1cccc(OC(F)(F)F)c1)c1ccnc(C(=O)NCc2cccc(OC(F)(F)F)c2)c1` [Example 14.67, Pyridine-2,4-dicarboxylic acid bis-(3-trifluoromethoxy-benzylamide)], the IC50 worked out at 4 µM.

On to `COc1ccc2[nH]cc(CCNC(=O)c3ccnc(C(=O)NCCc4c[nH]c5ccc(OC)cc45)c3)c2c1` [Example 14.78, Pyridine-2,4-dicarboxylic acid bis-{[2-(5-methoxy-1H-indol-3-yl)-ethyl]-amide}], for which the IC50 was found to be 30 µM. Regarding `O=C(NCCc1c[nH]c2ccccc12)c1ccnc(C(=O)NCCc2c[nH]c3ccccc23)c1` [Example 14.79, Pyridine-2,4-dicarboxylic acid bis-{[2-(1H-indol-3-yl)-ethyl]-amide}], the IC50 was found to be 30 µM. On to `O=C(NCc1cc(Cl)cc(Cl)c1)c1ccnc(C(=O)NCc2cc(Cl)cc(Cl)c2)c1` [Example 14.80, Pyridine-2,4-dicarboxylic acid bis-(3,5-dichloro-benzylamide)], for which the IC50 amounted to 30 µM. Regarding “Pyridine-2,4-dicarboxylic acid bis-benzylamide [Example 14.5]”, the IC50 turned out to be 0.29 µM.

Turning to “Pyridine-2,4-dicarboxylic acid bis-indan-1-ylamide [Example 14.73]”, the IC50 was determined as 0.44 µM.

(Values after patent publication US7015237B2, “Pyridine matrix metalloproteinase inhibitors” (Warner-Lambert Company, priority 2001, dated 2006).)
